Reference: publication PMC8102459, “3,3′-Thiodipropionic acid (TDP), a possible precursor for the synthesis of polythioesters: identification of TDP transport proteins in Variovorax paradoxus TBEA6” (Applied Microbiology and Biotechnology, 2021)

What was measured:
Assay in all cases: thermal shift assay, SYPRO Orange, real-time PCR
Format in all cases: binding
[1] = target: T1, TctC protein with locus tag VPARA-01760 (Variovorax paradoxus, UniProt A0A0H2MDR2); details: 1 μM protein, sodium phosphate pH 7.4, 0.1 to 3000 μM ligand
T1 construct: gene VPARA_01760; His-tagged (pET19b or pET23a)
T1 sequence (A0A0H2MDR2 1-326 limits assumed): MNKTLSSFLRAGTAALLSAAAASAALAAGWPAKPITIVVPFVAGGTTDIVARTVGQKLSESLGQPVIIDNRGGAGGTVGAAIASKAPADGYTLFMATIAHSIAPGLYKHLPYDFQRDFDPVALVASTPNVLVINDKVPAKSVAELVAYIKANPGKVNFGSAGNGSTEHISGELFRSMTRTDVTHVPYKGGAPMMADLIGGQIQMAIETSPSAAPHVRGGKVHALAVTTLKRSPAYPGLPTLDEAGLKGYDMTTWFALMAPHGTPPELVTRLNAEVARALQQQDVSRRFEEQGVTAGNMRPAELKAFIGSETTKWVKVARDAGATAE

[2] = target: T2, TctC-44430 (TctC, locus tag VPARA-44430) (Variovorax paradoxus, UniProt A0A0H2LXQ8); details: 1 μM protein, sodium phosphate pH 7.4; value is the melting temperature, not the shift; control Tm not given
T2 construct: gene VPARA_44430; His-tagged (pET19b N-terminal; pET23a C-terminal also made), E. coli BL21
T2 sequence (A0A0H2LXQ8 1-329 limits assumed): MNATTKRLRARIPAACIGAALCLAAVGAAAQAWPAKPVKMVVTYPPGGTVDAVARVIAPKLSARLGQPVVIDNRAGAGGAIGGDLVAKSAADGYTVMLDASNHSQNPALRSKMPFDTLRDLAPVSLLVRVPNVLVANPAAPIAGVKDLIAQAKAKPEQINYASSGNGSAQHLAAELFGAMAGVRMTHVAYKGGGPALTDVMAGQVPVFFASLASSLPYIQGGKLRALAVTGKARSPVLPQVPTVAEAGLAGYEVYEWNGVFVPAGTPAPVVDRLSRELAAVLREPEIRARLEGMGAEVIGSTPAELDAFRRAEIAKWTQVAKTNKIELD

[3] = target: T2, TctC-44430 (TctC, locus tag VPARA-44430); details: 1 μM protein, sodium phosphate pH 7.4; value is the melting temperature, not the shift; control Tm not given; remark: listed apart in the source

| Tm at 3000 μM gluconate [2] | Tm at 3000 μM TDP [3] | SMILES | Tm shift [1] |
| --- | --- | --- | --- |
| 83 °C |  | O=C(O)[C@H](O)[C@@H](O)[C@H](O)[C@H](O)CO [gluconate] | VPARA-01760 also showed temperature shifts with TDP or gluconate |
|  | 56 °C | O=C(O)CCSCCC(=O)O [TDP, 3,3′-Thiodipropionic acid] | VPARA-01760 also showed temperature shifts with TDP or gluconate |
